This note sets out measurements from PubChem BioAssay (NCI).

Among the test systems are MDA-N; HCC-2998 colon; NCI/ADR-RES ovarian; UACC-62 melanoma; MCF7 breast; SK-MEL-2 melanoma; U251 CNS; HCT-15 colon; OVCAR-3 ovarian; CCRF-CEM leukemia; SF-268 CNS; SF-539 CNS; HS 578T breast; UACC-257 melanoma; SK-MEL-28 melanoma; ACHN renal; TK-10 renal; SF-295 CNS.
Holding throughout (assay): inhibition of tumour cell growth, NCI panel, 48 h

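A five-concentration, 48-hour dose response in 96-well plates underlies each endpoint, interpolated linearly between surrounding concentrations. Definition used: TGI = concentration required for complete inhibition of growth.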

For the molecule `c1ccc2c(c1)cc1c3[nH]c4ccccc4c3ccn21`, the TGI in the experiment on MDA-N, in the experiment with HCC-2998 colon, in the experiment on NCI/ADR-RES ovarian, in the experiment with UACC-62 melanoma, in the experiment on MCF7 breast and in the experiment on SK-MEL-2 melanoma was over 10 µM in each case. Moreover, the TGI with U251 CNS, with HCT-15 colon, in the experiment on OVCAR-3 ovarian, with CCRF-CEM leukemia, in the experiment with SF-268 CNS and in the experiment on SF-539 CNS was over 10 µM each time. In addition, the TGI in the experiment with HS 578T breast, in the experiment on UACC-257 melanoma, with SK-MEL-28 melanoma, in the experiment on ACHN renal, in the experiment on TK-10 renal and with SF-295 CNS was over 10 µM in each case.

`CC(C)(C)OC(=O)NC(CCC(=O)OCc1ccccc1)C(=O)NCCCO` (centres undefined): the TGI in the experiment with MDA-N, in the experiment on HCC-2998 colon, in the experiment with NCI/ADR-RES ovarian, in the experiment with UACC-62 melanoma, in the experiment with MCF7 breast and in the experiment with SK-MEL-2 melanoma was over 100 µM in each case. Moreover, the TGI in the experiment on U251 CNS, with HCT-15 colon, with OVCAR-3 ovarian, in the experiment on CCRF-CEM leukemia, in the experiment with SF-268 CNS and with SF-539 CNS was over 100 µM each time. Further, the TGI with HS 578T breast, in the experiment on UACC-257 melanoma, in the experiment with SK-MEL-28 melanoma, in the experiment with ACHN renal and in the experiment with TK-10 renal was over 100 µM throughout.

With `O=C(c1ccccc1)N1OCCC1Nc1ccc(Br)cc1` (centres undefined), the TGI with MDA-N, with HCC-2998 colon, in the experiment on NCI/ADR-RES ovarian, in the experiment on MCF7 breast, in the experiment on SK-MEL-2 melanoma and in the experiment on HCT-15 colon was over 10 µM in each case. In addition, the TGI with OVCAR-3 ovarian, in the experiment with CCRF-CEM leukemia, in the experiment on SF-268 CNS, in the experiment with SF-539 CNS, with HS 578T breast and in the experiment with UACC-257 melanoma was over 10 µM throughout. Also, the TGI in the experiment with SK-MEL-28 melanoma, in the experiment with ACHN renal, in the experiment on TK-10 renal and in the experiment with SF-295 CNS was over 10 µM each time.

With `O=C(Nc1ccccc1)n1[nH]c(=O)n(-c2ccccc2)c1=O`, the TGI with MDA-N, with HCC-2998 colon, in the experiment with NCI/ADR-RES ovarian, with UACC-62 melanoma, with MCF7 breast and in the experiment with SK-MEL-2 melanoma was over 100 µM throughout. Besides, the TGI with U251 CNS, in the experiment on HCT-15 colon, in the experiment with CCRF-CEM leukemia, in the experiment on SF-268 CNS, in the experiment with SF-539 CNS and in the experiment with HS 578T breast was over 100 µM throughout. Besides, the TGI in the experiment with UACC-257 melanoma, in the experiment on SK-MEL-28 melanoma, in the experiment on ACHN renal, with TK-10 renal and in the experiment with SF-295 CNS was over 100 µM throughout.

Consider `O=C1C=CC2(O)OCCN(CCO)C2=C1` (centres undefined) (tested in a mixture with another compound), for which the TGI in the experiment with MDA-N, in the experiment with HCC-2998 colon, in the experiment with NCI/ADR-RES ovarian, in the experiment with UACC-62 melanoma, in the experiment with MCF7 breast and in the experiment with SK-MEL-2 melanoma was over 100 µM each time. Moreover, the TGI in the experiment on U251 CNS, in the experiment on HCT-15 colon, in the experiment with OVCAR-3 ovarian, with CCRF-CEM leukemia, in the experiment with SF-268 CNS and in the experiment on HS 578T breast was over 100 µM throughout. Also, the TGI in the experiment with UACC-257 melanoma, in the experiment on SK-MEL-28 melanoma, with ACHN renal, in the experiment with TK-10 renal and in the experiment with SF-295 CNS was over 100 µM each time.

In the case of `CC1=C(C(=O)N(C(C)C)C(C)C)CC(C(=O)N(C(C)C)C(C)C)=C(C)N1`, the TGI in the experiment with MDA-N, with HCC-2998 colon, in the experiment on NCI/ADR-RES ovarian, with UACC-62 melanoma, with MCF7 breast and with SK-MEL-2 melanoma was over 100 µM in each case. In addition, the TGI in the experiment with U251 CNS, in the experiment with HCT-15 colon, in the experiment on OVCAR-3 ovarian, with CCRF-CEM leukemia, in the experiment on SF-268 CNS and in the experiment with SF-539 CNS was over 100 µM each time. Further, the TGI in the experiment on HS 578T breast, in the experiment on UACC-257 melanoma, in the experiment on ACHN renal, in the experiment on TK-10 renal and in the experiment on SF-295 CNS was over 100 µM throughout.

Take `COc1ccc(N2C(=O)C(C)SC2c2cc3cc(Br)ccc3nc2Cl)cc1` (centres undefined): the TGI in the experiment with MDA-N was over 100 µM; in the experiment with HCC-2998 colon it was over 100 µM; with NCI/ADR-RES ovarian, 85.8 µM; with UACC-62 melanoma, over 100 µM; in the experiment with MCF7 breast, over 100 µM; with SK-MEL-2 melanoma, 48.4 µM. Also, the TGI in the experiment with HCT-15 colon was over 100 µM; with OVCAR-3 ovarian it was over 100 µM; with CCRF-CEM leukemia, over 100 µM; with SF-268 CNS, over 100 µM; with SF-539 CNS it was 55.7 µM; in the experiment on HS 578T breast it was over 100 µM. The TGI was over 100 µM with UACC-257 melanoma; over 100 µM in the experiment on SK-MEL-28 melanoma; over 100 µM with ACHN renal; 91.4 µM in the experiment on TK-10 renal; over 100 µM in the experiment on SF-295 CNS.
